Assay results from US20250179108A1, “UTILITY OF NEMATODE SMALL MOLECULES” (California Institute of Technology, priority 2011, published 2025).
Entries after “also recorded” stand apart in the source; their conditions may differ.

Tests used:
[1] = system: P. redivivus males; test: Attraction assay, Panagrellus redivivus males; type: in vivo
Description: (§1) FIG. 1A depicts, in accordance with an embodiment herein, a chemoattraction assay to reveal a gender specific mate finding cue in Panagrellus redivivus. A transparent template is attached below a 5-cm plate with a 16-mm bacterial lawn to delineate two scoring regions into which 0.6μL of the experimental sample and control sample are placed. Ten P. redivivus males are placed at points equidistant from the two scoring regions and the plate is recorded for 20 minutes (at a rate of 1 frame per second).
(§2) FIG. 1B depict attraction measured using software that computes the ratio of worm-pixels to total pixels for each scoring region.
(§3) FIG. 1C that the output is a plot of worm occupancy ratio vs. time for both scoring regions. The shown graph indicates strong attraction of P. redivivus males to the experimental sample. FIG. 2A depicts, in accordance with an embodiment herein, purification of the female sex pheromone in Panagrellus redivivus.
OP50 E. coli is grown on a standard 5 cm agar plate (made with standard Nematode Growth Medium). The bacterial lawn is 16 mm in diameter and is grown overnight at 20C before being used in trials. Two 4-mm spots ([…]) were placed on opposite sides of the bacterial lawn (using a transparent template to guide spot placement) and several minutes elapsed for the liquid to settle in before placing nematodes down on the assay. Recording began immediately upon worm placement. […] Trials were recorded for 20 minutes and frames were collected for analysis at 1 frame per second. […]
(§4) A video camera attached to the microscope produces a digital video stream, which is then analyzed. The ratio of time the average worm spends in each region of interest is calculated for every trial. […] Thus, worm pixels were counted instead of whole worms, allowing the inventors to take into account fractions of a worm in the region of interest. It also eliminated the need for a shape-based worm identification algorithm, and allowed each frame to be analyzed independently. […]

[2] = system: P. redivivus females; test: Attraction assay, Panagrellus redivivus females; type: in vivo
Description: as §1, §2, §3
OP50 E. coli is grown on a standard 5 cm agar plate (made with standard Nematode Growth Medium). The bacterial lawn is 16 mm in diameter and is grown overnight at 20C before being used in trials. Two 4-mm spots ([…]) were placed on opposite sides of the bacterial lawn (using a transparent template to guide spot placement) and several minutes elapsed for the liquid to settle in before placing nematodes down on the assay. Recording began immediately upon worm placement. […] of the control was placed on one side of the lawn and […] of the experimental cue was placed on the other side of the lawn, changing the location of the cue throughout trials, between left/right and top/bottom to avoid bias. Nematodes were isolated by gender at the L4 stage the day before being used in trials as developed adults. Five worms were each placed at two points equidistant from the foci of the scoring region (ten total). Trials were recorded for 20 minutes and frames were collected for analysis at 1 frame per second. Results were averaged from at least three different trials. For every nematode species in this study, the inventors tested different total number of worms (using water in both scoring regions) to determine the minimum number of worms necessary for consistent unbiased results over a 20-minute trial. […]
as §4

[3] = system: males from many of the nematode species tested; test: Attraction assay, males of different nematode species; type: in vivo; conditions: 1 nM, 1 μM and 1 mM tested
Description: FIG. 5A depicts, in accordance with an embodiment herein, that ascarosides mediate behavior of nematode species from diverse generas. Species that were amenable to test in the attraction assay (sufficient movement, unbiased direction, reproducible controls) were scored for attraction or repulsion toward three concentrations (1 mM, 1 μM, and 1 nM: from left to right) of 13 different ascarosides. Pvalues were determined using the Student's t-test with a P<0.05. The score “0” represents any findings where P>0.05.
(§5) To investigate the biological function of the ascarosides identified in the MS screen, the inventors used a bioassay (FIGS. 1A-1C) to measure attraction of different nematode species to a wide range of ascaroside concentrations (1 nM, 1 μM, and 1 mM). For these bioassays, nematode species had to fulfill several requirements, such as sufficient movement on bacterial lawns, low tendency to aggregate, easy to grow, and generally reproducible locomotive behavior. This study was limited to a survey of males from different species, because males tended to move much more evenly across our bioassay lawn than females and hermaphrodites (with the exception of P. redivivus females, which move well and were therefore in this study.)
OP50 E. coli is grown on a standard 5 cm agar plate (made with standard Nematode Growth Medium). The bacterial lawn is 16 mm in diameter and is grown overnight at 20C before being used in trials. Two 4-mm spots ([…]) were placed on opposite sides of the bacterial lawn (using a transparent template to guide spot placement) and several minutes elapsed for the liquid to settle in before placing nematodes down on the assay. Recording began immediately upon worm placement. […] of the control was placed on one side of the lawn and […] of the experimental cue was placed on the other side of the lawn, changing the location of the cue throughout trials, between left/right and top/bottom to avoid bias. Nematodes were isolated by gender at the L4 stage the day before being used in trials as developed adults. Five worms were each placed at two points equidistant from the foci of the scoring region (ten total). Trials were recorded for 20 minutes and frames were collected for analysis at 1 frame per second. Results were averaged from at least three different trials. For every nematode species in this study, the inventors tested different total number of worms (using water in both scoring regions) to determine the minimum number of worms necessary for consistent unbiased results over a 20-minute trial. The total number of worms used in the multiple species assays depending on that species' optimal parameters. 10 worms were for P. redivivus males and females, 20 worms were used for C. elegans males, O. dolichuridae males, and C. sp7 males and 14 worms were used forS. glaseri males.
A video camera attached to the microscope produces a digital video stream, which is then analyzed. The ratio of time the average worm spends in each region of interest is calculated for every trial. For ease of implementation, it was assumed that all worms in a single experiment are roughly the same size. Thus, worm pixels were counted instead of whole worms, allowing the inventors to take into account fractions of a worm in the region of interest. It also eliminated the need for a shape-based worm identification algorithm, and allowed each frame to be analyzed independently. The inventors applied a band-pass filter to each frame to eliminate the effect of uneven lighting and also accentuate the worms against the background. The worm was then identified after thresholding the filtered image. Throughout each experiment, the inventors know the locations and sizes of the regions of interest. Through the filtering described above, the inventors know which pixels are occupied by worms and which ones are not. They are then able to calculate the ratio of worm-pixels to all pixels inside the region of interest to produce the worm- occupancy ratio. […]

[4] = system: P. redivivus females; test: Repulsion scoring by behavioral response (immediate exit of the conditioned region); type: in vivo, Panagrellus redivivus; conditions: high concentrations
Source text: The inventors thus used a separate method for scoring repulsion that focused on behavioral response rather than time spent in each region.

[5] = system: asthmatic mice; test: Ovalbumin induction of asthma, allergic airway inflammation in mice; type: in vivo; conditions: for eosinophils / mucus hyper-production / cellular infiltration into the lungs: asthmatic mice; for cellular infiltration into the lungs: lung histology
Description: FIG. 7A depicts, in accordance with an embodiment herein, sensitization with OVA+ Control/Alum (N=3) and sensitization with OVA+NES/Alum (N=3), in Nippostrongylus brasiliensis. The experimental model is ovalbumin inducation of asthma. […] No worm, living or dead, is introduced into the asthma model. Furthermore, proteins were eliminated by denaturing at 100C for 25 minutes, and filtering through a 10 kDa filter. FIGS. 7B-7D depict the histology of mice treated with NES.
The effects of ascarosides are examined for an allergic airway inflammation.

[6] = system: C. elegans; conditions: cited from earlier work
[7] = system: C. elegans males; conditions: reduced attraction at high concentrations; cited from earlier work
[8] = system: C. elegans males; test: Attraction assay, C. elegans males; type: in vivo, Caenorhabditis elegans; conditions: tested at 1 nM, 1 μM and 1 mM
Description: as §5
OP50 E. coli is grown on a standard 5 cm agar plate (made with standard Nematode Growth Medium). […] Trials were recorded for 20 minutes and frames were collected for analysis at 1 frame per second. […]
as §4

[9] = any of the tested concentrations

| SMILES | attraction of males [3] | eosinophils [5] | mucus hyper-production [5] | cellular infiltration into the lungs [5] | further results |
| --- | --- | --- | --- | --- | --- |
| CC1O[C@@H](O[C@H](C)CCCCCCC(=O)O)[C@@H](O)C[C@H]1O (some centres unmarked) [ascr #10] | attracted | – | – | – | male attraction ([1]; very high, nonphysiological concentration of 1 mM): some attraction; female attraction [2, 9]: do not respond |
| CC1O[C@@H](O[C@H](C)CCCCC(=O)O)C(O)C[C@H]1O (single isomer, unassigned; (-)) [ascr #1, (−) 6-(3,5-dihydroxy-6-methyltetrahydropyran-2-yloxy) heptanoic acid] | attracted | reduction | decreased | decreased | male attraction (Attraction Bioassay) ([1]; P. redivivus males): strongly attracted; also recorded: full male attraction; female attraction [2, 9]: not attracted; female attraction ([2]; between 100 and 106 fmol, FIG. 2E): not attracted; female repulsion, semi-automated scoring method ([2]; time spent in each region): not significantly repelled; female repulsion, immediate exit of the conditioned region before entering a full worm's length [4]: significantly repelled; eosinophils ([5]; listed as Ascr #1): some effect; induction of diapause (dauer) [6]: weakly induces diapause |
| CC(=O)CCCC(C)OC1OC(C)C(O)CC1O (centres unmarked) [ascr #2] | – | – | – | – | male response to hermaphroditic sex pheromones [7]: biphasic response |
| CC1O[C@@H](O[C@H](C)CCC(=O)O)[C@@H](O)C[C@H]1O (some centres unmarked) [ascr #9] | attracted | – | – | – | – |
| CC1O[C@@H](O[C@H](C)CCCC/C=C/C(=O)O)[C@@H](O)C[C@H]1O (some centres unmarked) [ascr #3] | attracted | reduction; also recorded: some effect | decreased | decreased | male response to hermaphroditic sex pheromones [7]: biphasic response |
| C[C@H](CC/C=C/C(=O)Nc1ccc(C(=O)O)cc1)O[C@@H]1O[C@@H](C)[C@H](O)C[C@H]1O [ascr #8] | attracted | – | – | – | – |
| C[C@H](CC/C=C/C(=O)O)O[C@@H]1O[C@@H](C)[C@H](O)C[C@H]1O [ascr #7] | attracted | reduction; also recorded: markedly reduced | decreased | decreased | male attraction ([1]; 1 mM and 1 μM): attracted; male response (attraction) [8]: only respond to 1 mM; effect on allergic airway inflammation ([5]; synthesized ascarosides tested individually, FIG. 10B): inhibitory effect |
